Results: patent publication US20070043104A1, “UII-modulating compounds and their use” (priority 2005, published 2007)
Where a name gives a salt, the structure may show the parent alone. Read-outs that look alike come from different tables or passages of the source.

Target: T1, human urotensin II receptor (Homo sapiens, UniProt Q9UKP6)
T1 construct: expressed in transfected cells; host or cells: NIH3T3 cells
T1 sequence (Q9UKP6 1-389): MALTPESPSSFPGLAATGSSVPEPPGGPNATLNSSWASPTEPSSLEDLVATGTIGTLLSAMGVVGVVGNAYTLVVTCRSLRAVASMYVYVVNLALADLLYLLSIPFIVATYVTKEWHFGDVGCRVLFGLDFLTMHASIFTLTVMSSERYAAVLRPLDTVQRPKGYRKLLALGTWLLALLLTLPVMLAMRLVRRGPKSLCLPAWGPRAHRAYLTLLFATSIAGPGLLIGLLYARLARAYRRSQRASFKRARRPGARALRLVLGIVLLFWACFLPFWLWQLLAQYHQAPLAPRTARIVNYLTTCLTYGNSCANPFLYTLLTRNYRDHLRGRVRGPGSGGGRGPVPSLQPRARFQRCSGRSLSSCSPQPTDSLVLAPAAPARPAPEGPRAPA
Assay: Receptor Selection and Amplification (R-SAT) functional assay, NIH3T3 cells transfected with human urotensin II receptor and β-galactosidase marker
Format: cell-based
Conditions: for pEC50 / EC50: eight doses in triplicate
Procedure: The functional receptor assay, Receptor Selection and Amplification Technology (R-SAT™), was used (with minor modifications from the procedure described previously (Brann, M. R. U.S. Pat. No. 5,707,798, 1998; Chem. Abstr. 1998, 128, 111548) to screen compounds for efficacy at the UII receptor. The RSAT assay was conducted as described herein.
Briefly, NIH3T3 cells were grown in tissue culture treated rollerbottles to 40-80% confluence in Dulbecco's modified Eagle's medium (DMEM) supplemented with 10% bovine calf serum (Hyclone) and 1% penicillin/streptomycin/glutamine (Invitrogen). Cells were transfected for 12-18 hours with the human urotensin II receptor and the β-galactosidase marker. After transfection, the cells were trypsinized, harvested and frozen in DMEM containing 10% DMSO. Frozen cells were later thawed and tested for a response to a control compound to perform quality control before initiation of pharmacological testing, ensuring the correct pharmacological response and sufficient sensitivity. To initiate the pharmacological assay, cells were thawed rapidly and prepared in DMEM media containing 0.4% calf serum (Hyclone), 30% UltraCulture (Biowhittaker), and 1% penicillin/streptomycin/glutamine (Invitrogen), and then plated at 10,000-40,000 cells per well of a 96½ area plate that contained either the test compounds or reference ligands. Cells were then grown in a humidified atmosphere with 5% ambient CO2 for five days. Media was then removed from the plates and marker gene activity was measured by the addition of the beta-galactosidase substrate ONPG (in PBS with 5% NP-40). The resulting colorimetric reaction was measured in a spectrophotometric plate reader (Titertek Inc.) at […].
pEC50 represents the negative logarithm of the concentration of ligand that caused 50% activation of the basal receptor response. Percent activation was calculated as the difference between the absorbance measurements in the absence of added ligand compared with that in the presence of saturating concentrations of ligand normalized to the absorbance difference for the reference ligand, which was assigned a value of 100%.
Results were determined in R-SAT assays and are expressed as pEC50, the negative of the log EC50 in molarity. Results are the average±standard deviation of 2-X determinations of the EC50 where each compound was tested in eight doses in triplicate.

[1] = NIH3T3, Table 3, percent activation normalized to the reference ligand assigned 100%, read-out: Efficacy
[2] = Table 3, negative of the log EC50 in molarity, average ± standard deviation (or range) of determinations
[3] = NIH3T3, Table 4, % efficacy normalized to UII at 100%
[4] = Table 4, negative of the log EC50 in molarity, average ± standard deviation of 2-5 determinations

| SMILES | Emax [1] | EC50 [2] | Emax [3] | EC50 [4] | also measured |
| --- | --- | --- | --- | --- | --- |
| COc1cccc(C(=O)NC(CCN(C)C)c2ccc(Cl)cc2)c1C.O=C(O)C(=O)O (stereo not drawn) [5g, N-[1-(4-Chlorophenyl)-3-dimethylamino-propyl]-3-methoxy-2-methyl-benzamide oxalate] | 179 ± 11% |  |  |  | pEC50 [2]: 5.37 ± 0.14 |
| COc1ccc(C(=O)OC(CCN(C)C)c2ccc(Cl)cc2)cc1 (stereo not drawn) [4p, 1-(4-Chlorophenyl)-3-dimethylamino-propyl 4-methoxy-benzoate oxalate] | 52 to 101% | 1550 to 3720 nM |  |  |  |
| COc1ccc(C(=O)NC(CCN(C)C)c2ccc(Cl)cc2)cc1.O=C(O)C(=O)O (stereo not drawn) [5d, N-[1-(4-Chlorophenyl)-3-dimethylaminopropyl]-4-methoxy-benzamide oxalate] | 148 ± 33% |  |  |  | pEC50 [2]: 5.87 ± 0.2 |
| Cc1cccc(C(=O)OC(CCN(C)C)c2ccc(Cl)cc2)c1C (stereo not drawn) [4d, 1-(4-Chlorophenyl)-3-dimethylamino-propyl 2,3-dimethyl-benzoate HCl] | 94 ± 42% | 1260 nM |  |  |  |
| CN(C)CCC(NC(=O)c1ccc(C(F)(F)F)cc1)c1ccc(Cl)cc1 (stereo not drawn) [5q, N-[1-(4-Chlorophenyl)-3-dimethylaminopropyl]-4-trifluoromethyl-benzamide oxalate] | 100 to 127% | 66.1 to 102 nM |  |  |  |
| Cc1ccccc1C(=O)NC(CCN(C)C)c1ccc(Cl)cc1.O=C(O)C(=O)O (stereo not drawn) [5b, N-[1-(4-Chlorophenyl)-3-dimethylamino-propyl]-2-methyl-benzamide oxalate] | 175 ± 15% |  |  |  | pEC50 [2]: 5.45 ± 0.04 |
| COc1ccc(CCC(=O)NC(CCN(C)C)c2ccc3ccccc3c2)cc1.Cl (stereo not drawn) [C6] |  |  |  |  | Efficacy (Table 4, % efficacy normalized to UII at 100%): 113 ± 9%; pEC50 [4]: 5.85 ± 0.11 |
| CN(C)CCC(OC(=O)c1cc2ccccc2n1C)c1ccc(Cl)cc1 (stereo not drawn) [4n, 1-(4-Chlorophenyl)-3-dimethylamino-propyl 1-methyl-indole-2-carboxylate HCl] | 104 ± 34% | 1910 nM |  |  |  |
| CN(C)CCC(NC(=O)c1ccc(-c2ccccc2)cc1)c1ccc(Cl)cc1 (single isomer, unassigned; (-)) [(−) 5o, (−)-N-[1-(4-Chlorophenyl)-3-dimethylamino-propyl]-4-phenyl-benzamide oxalate] | 112 to 114% | 1150 to 1200 nM |  |  |  |
| Cc1ccc(S(=O)(=O)NC(CCN(C)C)c2ccc(Cl)cc2)cc1.O=C(O)C(=O)O (stereo not drawn) [6a, N-[1-(4-Chlorophenyl)-3-dimethylaminopropyl]-4-methyl-benzenesulfonamide oxalate] | 74 ± 10% |  |  |  | pEC50 [2]: 5.19 ± 0.09 |
| CN(C)CCC(NC(=O)c1ccc(N(C)C)cc1)c1ccc(Cl)cc1.O=C(O)C(=O)O (stereo not drawn) [5e, N-[1-(4-Chlorophenyl)-3-dimethylaminopropyl]-4-dimethylamino-benzamide oxalate] | 145 ± 25% |  |  |  | pEC50 [2]: 5.87 ± 0.17 |

Continued, in another order:

| Emax [1] | EC50 [2] | Emax [3] | EC50 [4] | SMILES | also measured |
| --- | --- | --- | --- | --- | --- |
| 130 to 223% | 955 to 2450 nM |  |  | COc1ccc(NC(=O)OC(CCN(C)C)c2ccc(Cl)cc2)cc1 (stereo not drawn) [7h, N-[1-(4-Chlorophenyl)-3-dimethylaminopropyloxycarbonyl]-4-methoxyphenyl-amine] |  |
| 93 to 120% | 97.7 to 155 nM |  |  | CN(C)CCC(NC(=O)Nc1ccc(C(F)(F)F)cc1)c1ccc(Cl)cc1 (stereo not drawn) [8i, 1-[1-(4-Chlorophenyl)-3-dimethylaminopropyl]-3-(4-trifluoromethylphenyl)-carbamide oxalate] |  |
|  |  | 101 ± 12% | 2950 nM | COc1ccc(CCC(=O)NC(CCN(C)C)c2ccc(Cl)cc2)cc1 (stereo not drawn) [A6, N-[1-(4-Chlorophenyl)-3-dimethylamino-propyl]-3-(4-methoxyphenyl)propanamide HCl] |  |
|  |  | 117 ± 1% | 135 nM | CN(C)CCC(NC(=O)C=Cc1ccc(C(F)(F)F)cc1)c1ccc2ccccc2c1 (stereo not drawn) [C8, N-[3-Dimethylamino-1-(2-naphthyl)propyl]-4-trifluoromethyl-cinnamic amide HCl] |  |
|  |  | 131% | 3090 nM | Cc1ccc(C(CCN(C)C)NC(=O)C#Cc2ccccc2)cc1 (stereo not drawn) [B10, N-[3-Dimethylamino-1-(4-methylphenyl)propyl]-3-phenylpropiolic amide] |  |
|  |  | 53 ± 7% | 871 nM | CN(C)CCC(NC(=O)Cc1ccc(C(F)(F)F)cc1)c1ccc(Cl)cc1 (stereo not drawn) [A2, N-[1-(4-Chlorophenyl)-3-dimethylamino-propyl]-2-(4-trifluoromethylphenyl)acetamide HCl] |  |
|  |  | 124 ± 6% | 398 nM | CN(C)CCC(NC(=O)C#Cc1ccccc1)c1ccc(Cl)cc1 (stereo not drawn) [A10, N-[1-(4-Chlorophenyl)-3-dimethylamino-propyl]-3-phenylpropiolic amide HCl] |  |
| 166 ± 24% |  |  |  | Cc1ccccc1NC(=O)NC(CCN(C)C)c1ccc(Cl)cc1 (stereo not drawn) [8a, 1-[1-(4-Chlorophenyl)-3-dimethylaminopropyl]-3-(2-methylphenyl)-carbamide oxalate] | pEC50 [2]: 5.64 ± 0.15 |
|  |  | 76 ± 5% | 1860 nM | CN(C)CCC(NC(=O)Cc1ccccc1)c1ccc(Cl)cc1 (stereo not drawn) [A1, N-[1-(4-Chlorophenyl)-3-dimethylamino-propyl]-2-phenylacetamide HCl] |  |
|  |  | 73 ± 10% | 1120 nM | CN(C)CCC(NC(=O)CCc1ccc(C(F)(F)F)cc1)c1ccc(Cl)cc1 (stereo not drawn) [A5, N-[1-(4-Chlorophenyl)-3-dimethylamino-propyl]-3-(4-trifluoromethylphenyl) propionamide HCl] |  |
| 105 ± 8% | 1780 nM |  |  | CN(C)CCC(OC(=O)Nc1ccc(C(C)(C)C)cc1)c1ccc(Cl)cc1 (stereo not drawn) [7c, N-[1-(4-Chlorophenyl)-3-dimethylaminopropyloxycarbonyl]-4-tert-butylphenyl-amine] |  |
|  |  | 133 ± 3% | 129 nM | CN(C)CCC(NC(=O)C=Cc1ccc(C(F)(F)F)cc1)c1ccc(Cl)cc1 (stereo not drawn) [A8, N-[1-(4-Chlorophenyl)-3-dimethylamino-propyl]-4-trifluoromethyl-cinnamic amide HCl] |  |
|  |  | 62 ± 5% | 5890 nM | COc1ccc(CC(=O)NC(CCN(C)C)c2ccc(C)cc2)cc1 (stereo not drawn) [B3, N-[3-Dimethylamino-1-(4-methylphenyl)propyl]-2-(4-methoxyphenyl)acetamide HCl] |  |
